“And” between values parts separate entries of the source, which are not always exact repeats. Identical values can stand only once. Numbers after ± are expanded uncertainties.
Tests used:
[1] = for vapor or sublimation pressure: Liquid, Transpiration method
[2] = Molar enthalpy of transition or fusion; conditions: Crystal; DSC
[3] = molar heat capacity at constant pressure; conditions: 101.33 kPa, Crystal, DSC

N#Cc1cccc2ccccc12 [1-cyanonaphthalene]
Conditions | molar heat capacity at constant pressure | vapor or sublimation pressure [kPa]
[1], 317.4 K | – | 0.00232 ± 0.00011
[1], 321.3 K | – | 0.00324 ± 0.00015
[1], 323.2 K | – | 0.00381 ± 0.00018
[1], 326.3 K | – | 0.00461 ± 0.00021
[1], 328.2 K | – | 0.00556 ± 0.00027
[1], 331.2 K | – | 0.00702 ± 0.00033
[1], 333.3 K | – | 0.00785 ± 0.00037
[1], 335.2 K | – | 0.00943 ± 0.00045
[1], 338.2 K | – | 0.0116 ± 0.0005
[1], 340.2 K | – | 0.01358 ± 0.00064
[1], 343.2 K | – | 0.01719 ± 0.00079
[1], 345.1 K | – | 0.01921 ± 0.00089
[1], 348.1 K | – | 0.02329 ± 0.0011
[1], 351.1 K | – | 0.02893 ± 0.0013
[1], 353.2 K | – | 0.03229 ± 0.0014
[3], 268.9 K | 144.7 ± 30 J/K/mol and 156.8 ± 32 J/K/mol | –
[3], 269.3 K | 148.8 ± 30 J/K/mol and 159.1 ± 32 J/K/mol | –
[3], 269.7 K | 152.4 ± 31 J/K/mol and 161.1 ± 33 J/K/mol | –
[3], 270.1 K | 155.6 ± 32 J/K/mol and 162.6 ± 33 J/K/mol | –
[3], 270.5 K | 158.2 ± 32 J/K/mol and 164.1 ± 33 J/K/mol | –
[3], 270.9 K | 160.6 ± 33 J/K/mol and 165.4 ± 34 J/K/mol | –
[3], 271.3 K | 162.5 ± 33 J/K/mol and 166.5 ± 34 J/K/mol | –
[3], 271.7 K | 164.3 ± 33 J/K/mol and 167.5 ± 34 J/K/mol | –
[3], 272.1 K | 168.4 ± 34 J/K/mol and 165.9 ± 34 J/K/mol | –
[3], 272.5 K | 169.2 ± 34 J/K/mol and 167.2 ± 34 J/K/mol | –
[3], 272.9 K | 168.6 ± 34 J/K/mol and 170 ± 34 J/K/mol | –
[3], 273.3 K | 169.6 ± 34 J/K/mol and 170.8 ± 35 J/K/mol | –
[3], 273.6 K | 170.5 ± 35 J/K/mol and 171.4 ± 35 J/K/mol | –
[3], 274 K | 171.5 ± 35 J/K/mol and 172.1 ± 35 J/K/mol | –
[3], 274.4 K | 172.1 ± 35 J/K/mol and 172.7 ± 35 J/K/mol | –
[3], 274.8 K | 172.9 ± 35 J/K/mol and 173.4 ± 35 J/K/mol | –
[3], 275.2 K | 173.5 ± 35 J/K/mol and 173.9 ± 35 J/K/mol | –
[3], 275.5 K | 174.2 ± 35 J/K/mol and 174.4 ± 35 J/K/mol | –
[3], 275.9 K | 174.6 ± 36 J/K/mol and 174.9 ± 36 J/K/mol | –
[3], 276.3 K | 175.1 ± 36 J/K/mol and 175.4 ± 36 J/K/mol | –
[3], 276.7 K | 175.5 ± 36 J/K/mol and 175.6 ± 36 J/K/mol | –
[3], 277 K | 175.9 ± 36 J/K/mol | –
[3], 277.1 K | 175.7 ± 36 J/K/mol | –
[3], 277.4 K | 176 ± 36 J/K/mol and 176.3 ± 36 J/K/mol | –
[3], 277.8 K | 176.2 ± 36 J/K/mol and 176.6 ± 36 J/K/mol | –
[3], 278.2 K | 177 ± 36 J/K/mol and 176.6 ± 36 J/K/mol | –
[3], 278.5 K | 177.5 ± 36 J/K/mol and 177.1 ± 36 J/K/mol | –
[3], 278.9 K | 177.9 ± 36 J/K/mol and 177.6 ± 36 J/K/mol | –
[3], 279.3 K | 178.4 ± 36 J/K/mol and 178.1 ± 36 J/K/mol | –
[3], 279.6 K | 179 ± 36 J/K/mol and 178.7 ± 36 J/K/mol | –
[3], 280 K | 179.6 ± 36 J/K/mol and 179.5 ± 36 J/K/mol | –
[3], 280.4 K | 180.4 ± 37 J/K/mol and 180.3 ± 37 J/K/mol | –
[3], 280.7 K | 181.1 ± 37 J/K/mol | –
[3], 280.8 K | 181.2 ± 37 J/K/mol | –
[3], 281.1 K | 181.9 ± 37 J/K/mol and 182 ± 37 J/K/mol | –
[3], 281.5 K | 182.8 ± 37 J/K/mol and 182.9 ± 37 J/K/mol | –
[3], 281.8 K | 183.7 ± 37 J/K/mol | –
[3], 281.9 K | 183.8 ± 37 J/K/mol | –
[3], 282.2 K | 184.7 ± 38 J/K/mol and 184.8 ± 38 J/K/mol | –
[3], 282.6 K | 185.7 ± 38 J/K/mol and 185.8 ± 38 J/K/mol | –
[3], 282.9 K | 186.7 ± 38 J/K/mol and 186.6 ± 38 J/K/mol | –
[3], 283.3 K | 187.9 ± 38 J/K/mol and 187.6 ± 38 J/K/mol | –
[3], 283.7 K | 188.9 ± 38 J/K/mol and 188.4 ± 38 J/K/mol | –
[3], 284 K | 190 ± 39 J/K/mol and 189 ± 38 J/K/mol | –
[3], 284.4 K | 190.9 ± 39 J/K/mol and 189.8 ± 38 J/K/mol | –
[3], 284.8 K | 191.7 ± 39 J/K/mol and 190.3 ± 39 J/K/mol | –
[3], 285.1 K | 192.3 ± 39 J/K/mol and 190.7 ± 39 J/K/mol | –
[3], 285.5 K | 192.8 ± 39 J/K/mol and 191 ± 39 J/K/mol | –
[3], 285.9 K | 193.1 ± 39 J/K/mol and 191.4 ± 39 J/K/mol | –
[3], 286.2 K | 193.2 ± 39 J/K/mol and 191.6 ± 39 J/K/mol | –
[3], 286.6 K | 193.3 ± 39 J/K/mol and 191.7 ± 39 J/K/mol | –
[3], 286.9 K | 193.2 ± 39 J/K/mol and 192 ± 39 J/K/mol | –
[3], 287.3 K | 193.3 ± 39 J/K/mol and 192.4 ± 39 J/K/mol | –
[3], 287.7 K | 193.2 ± 39 J/K/mol and 192.6 ± 39 J/K/mol | –
[3], 288 K | 193 ± 39 J/K/mol | –
[3], 288.4 K | 192.8 ± 39 J/K/mol and 193.1 ± 39 J/K/mol | –
[3], 288.8 K | 192.4 ± 39 J/K/mol and 193.1 ± 39 J/K/mol | –
[3], 289.1 K | 192.1 ± 39 J/K/mol and 193.1 ± 39 J/K/mol | –
[3], 289.5 K | 191.7 ± 39 J/K/mol and 193.1 ± 39 J/K/mol | –
[3], 289.8 K | 191.4 ± 39 J/K/mol and 193.1 ± 39 J/K/mol | –
[3], 290.2 K | 191.3 ± 39 J/K/mol and 193 ± 39 J/K/mol | –
[3], 290.6 K | 191.3 ± 39 J/K/mol and 192.9 ± 39 J/K/mol | –
[3], 290.9 K | 191.6 ± 39 J/K/mol and 192.9 ± 39 J/K/mol | –
[3], 291.3 K | 191.9 ± 39 J/K/mol and 192.9 ± 39 J/K/mol | –
[3], 291.7 K | 192.2 ± 39 J/K/mol and 193.1 ± 39 J/K/mol | –
[3], 292 K | 192.7 ± 39 J/K/mol and 193.5 ± 39 J/K/mol | –
[3], 292.4 K | 193.3 ± 39 J/K/mol and 193.6 ± 39 J/K/mol | –
[3], 292.8 K | 193.8 ± 39 J/K/mol and 194.2 ± 39 J/K/mol | –
[3], 293.1 K | 194.5 ± 40 J/K/mol and 194.6 ± 40 J/K/mol | –
[3], 293.5 K | 195.3 ± 40 J/K/mol and 195.4 ± 40 J/K/mol | –
[3], 293.8 K | 196.1 ± 40 J/K/mol | –
[3], 294.2 K | 196.8 ± 40 J/K/mol and 196.7 ± 40 J/K/mol | –
[3], 294.6 K | 197.8 ± 40 J/K/mol and 197.4 ± 40 J/K/mol | –
[3], 294.9 K | 198.7 ± 40 J/K/mol and 198.1 ± 40 J/K/mol | –
[3], 295.3 K | 199.6 ± 40 J/K/mol and 198.9 ± 40 J/K/mol | –
[3], 295.7 K | 200.6 ± 41 J/K/mol and 199.8 ± 41 J/K/mol | –
[3], 296 K | 201.6 ± 41 J/K/mol and 200.6 ± 41 J/K/mol | –
[3], 296.4 K | 202.5 ± 41 J/K/mol and 201.7 ± 41 J/K/mol | –
[3], 296.8 K | 203.6 ± 41 J/K/mol and 202.9 ± 41 J/K/mol | –

Conditions | Normal melting temperature [°C]
[1], Crystal, DTA | 34 ± 1.3

Conditions | Molar enthalpy of transition or fusion [kcal/mol]
[2] | 4.16 ± 0.143
